Patent US20200377459A1, “CHARGED ION CHANNEL BLOCKERS AND METHODS FOR USE” (President and Fellows of Harvard College, priority 2015, published 2020)
Entries after “also recorded” stand apart in the source; their conditions may differ.

Experiments:
[1] = tested on: CFA-induced thermal hyperalgesia; assay: CFA-induced thermal hyperalgesia (Hargreaves radiant heat, hind paw); type: in vivo; conditions: mice, intraplantar co-injection with CFA, 1%
Procedure: FIGS. 2A-2D show reversal of CFA-induced thermal hyperalgesia by charged sodium channel blockers. FIGS. 2A and 2C show time course (0, 1, 6, and 24 hours) of changes in thermal nociceptive sensitivity measured as response latency (seconds) to a constant radiant heat source applied to the plantar surface of hind paw in mice co-treated with 20 μL (injected in the left hindpaw) of CFA (50% emulsion) and saline, and when the CFA was co-applied with QX-314 (1%, hollow square), N-ethyl etidocaine (Compound 21, 1%; dark square), or ACS8180-3B (Compound 3, 1%; solid triangle). FIGS. 2B and 2D show the nociceptive heat pain response time before CFA treatment and after treatment with the different compounds 1 hour post CFA injection. The data are means±SEM of 8-16 mice per group. The statistical comparison with pre-CFA (*) and with CFA+Vehicle (+) is indicated by +P<0.05; ++P<0.01 and +++,*** P<0.001. All procedures were approved by the Institutional Animal Care and Use Committees. Mice and rats were housed in standard environmental conditions (12-h light/dark cycle; 23° C.; food and water ad libitum) at facilities accredited by the Association for Assessment and Accreditation of Laboratory Animal Care. 8-week old male BALB/c (stock number: 001026) and C57BL/6J (stock number 000664) mice were purchased from Jackson Laboratory and respectively used in allergic airway inflammation (FIG. 5) and pain hypersensitivity model (FIGS. 2A-2D). 6-week old male Sprague-Dawley (stock number: 400) rats, 150±25 grams, were purchased from Charles River laboratory and used to assess pain hypersensitivity (FIG. 3). The compounds were injected in the plantar surface of each animal's right hind paw in 10 μl (mice) or 50 μl (rats) volume of 1:1 emulsion of Complete Freund's Adjuvant (CFA). […] On the 4th day, their thermal nociceptive threshold was evaluated. […] Impact of treatment was analyzed 1 h prior and 1, 3, 6 and 24 h post-treatment. […] With each reading the apparatus was set with a cut-off time of 32 s.

human Nav1.7 channels = biological target: T1, human Nav1.7 channels (Homo sapiens, UniProt Q15858); assay: Whole-cell patch clamp, use-dependent block of sodium current, drug applied intracellularly or externally; type: cell-based
T1 construct: expressed in transfected cells
T1 sequence (Q15858 whole entry): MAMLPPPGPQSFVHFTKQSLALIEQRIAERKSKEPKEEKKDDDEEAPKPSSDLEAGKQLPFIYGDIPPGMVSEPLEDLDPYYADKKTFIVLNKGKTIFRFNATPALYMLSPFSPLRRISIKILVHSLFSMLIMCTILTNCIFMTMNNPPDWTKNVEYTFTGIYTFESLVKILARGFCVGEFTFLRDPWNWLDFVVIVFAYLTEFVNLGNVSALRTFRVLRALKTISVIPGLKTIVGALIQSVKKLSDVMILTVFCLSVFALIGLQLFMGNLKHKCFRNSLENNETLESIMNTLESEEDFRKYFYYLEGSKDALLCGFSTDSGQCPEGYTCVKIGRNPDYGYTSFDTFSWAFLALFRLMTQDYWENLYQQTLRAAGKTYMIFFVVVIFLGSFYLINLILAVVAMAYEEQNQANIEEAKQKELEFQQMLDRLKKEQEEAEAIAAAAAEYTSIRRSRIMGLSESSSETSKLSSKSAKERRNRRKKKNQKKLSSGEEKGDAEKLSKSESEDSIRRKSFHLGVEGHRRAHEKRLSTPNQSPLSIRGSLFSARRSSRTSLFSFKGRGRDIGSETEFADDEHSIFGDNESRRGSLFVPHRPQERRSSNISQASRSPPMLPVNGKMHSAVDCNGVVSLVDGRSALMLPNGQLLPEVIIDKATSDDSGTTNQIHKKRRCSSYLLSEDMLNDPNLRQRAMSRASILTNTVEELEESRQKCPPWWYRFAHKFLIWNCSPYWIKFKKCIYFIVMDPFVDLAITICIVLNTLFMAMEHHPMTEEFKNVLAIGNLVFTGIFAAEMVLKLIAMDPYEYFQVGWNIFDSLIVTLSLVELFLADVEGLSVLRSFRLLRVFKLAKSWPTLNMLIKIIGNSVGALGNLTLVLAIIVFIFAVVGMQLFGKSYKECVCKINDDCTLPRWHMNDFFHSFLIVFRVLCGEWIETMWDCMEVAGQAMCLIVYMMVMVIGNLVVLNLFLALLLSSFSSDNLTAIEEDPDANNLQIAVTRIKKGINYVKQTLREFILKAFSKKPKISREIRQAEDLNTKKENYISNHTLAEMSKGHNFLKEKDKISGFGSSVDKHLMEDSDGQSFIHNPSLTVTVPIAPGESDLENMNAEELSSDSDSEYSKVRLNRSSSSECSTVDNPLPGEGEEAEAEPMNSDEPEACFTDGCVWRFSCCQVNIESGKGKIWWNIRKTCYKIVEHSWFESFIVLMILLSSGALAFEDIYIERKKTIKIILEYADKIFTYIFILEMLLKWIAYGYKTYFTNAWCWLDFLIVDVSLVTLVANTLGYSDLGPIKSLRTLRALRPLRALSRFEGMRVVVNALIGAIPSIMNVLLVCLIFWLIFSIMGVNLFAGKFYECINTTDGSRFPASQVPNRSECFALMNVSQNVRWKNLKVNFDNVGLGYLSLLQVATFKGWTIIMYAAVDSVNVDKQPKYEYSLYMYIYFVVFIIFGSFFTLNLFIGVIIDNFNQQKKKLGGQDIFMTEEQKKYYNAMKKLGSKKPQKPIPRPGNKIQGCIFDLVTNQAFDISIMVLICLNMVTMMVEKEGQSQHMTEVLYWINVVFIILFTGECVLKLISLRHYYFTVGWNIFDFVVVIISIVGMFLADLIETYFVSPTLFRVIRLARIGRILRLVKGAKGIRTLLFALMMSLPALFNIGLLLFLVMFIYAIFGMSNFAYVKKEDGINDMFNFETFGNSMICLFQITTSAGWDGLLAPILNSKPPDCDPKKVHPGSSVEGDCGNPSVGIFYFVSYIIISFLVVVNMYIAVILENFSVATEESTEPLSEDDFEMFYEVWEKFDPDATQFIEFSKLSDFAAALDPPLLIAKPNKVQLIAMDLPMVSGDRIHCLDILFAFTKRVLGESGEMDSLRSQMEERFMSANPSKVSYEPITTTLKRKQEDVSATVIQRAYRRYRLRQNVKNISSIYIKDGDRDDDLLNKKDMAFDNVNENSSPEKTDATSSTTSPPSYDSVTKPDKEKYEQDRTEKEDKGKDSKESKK
Procedure: Whole-cell recordings were made of currents carried by voltage-activated channels in HEK293 cells stably expressing human Nav1.7 channels. Recordings were made using patch pipettes with resistances of 2-3.5 MQ when filled with internal solution, consisting of 61 mM CsF, 61 mM CsCl, 9 mM NaCl, 1.8 mM MgCl2, 9 mM EGTA, 14 mM creatine phosphate (tris salt), 4 mM MgATP, and 0.3 mM GTP (tris salt), 9 mM HEPES, pH adjusted to 7.2 with CsOH. The shank of the electrode was wrapped with Parafilm in order to reduce capacitance and allow optimal series resistance compensation without oscillation. Seals were obtained and the whole-cell configuration established with cells in Tyrode's solution (155 mM NaCl, 3.5 mM KCl, 1.5 mM CaCl2), 1 mM MgCl2, 10 mM HEPES, 10 mM glucose, pH adjusted to 7.4 with NaOH) with 10 mM TEACl. To ensure complete dialysis with pipette solution, recordings began after 5 to 10 min after establishment of the whole-cell configuration.
Currents were recorded at room temperature (21-23° C.) with an Axopatch 200 amplifier and filtered at 5 kHz with a low-pass Bessel filter. The amplifier was tuned for partial compensation of series resistance (typically 70-80% of a total series resistance of 4-10 MO). Currents were digitized using a Digidata 1322A data acquisition interface controlled by pClamp9.2 software (Axon Instruments) and analyzed using programs written in Igor Pro 4.0 (Wavemetrics, Lake Oswego, Oreg.). Currents were corrected for linear capacitative and leak currents determined using 5 mV hyperpolarizations delivered from the resting potential (usually −80 or −100 mV) and then appropriately scaled and subtracted.
Sodium currents were evoked by 30-msec depolarizations from −100 mV to −20 mV. To assay use-dependent block, pulses were delivered at series of increasing rates: 0.05 Hz for 1-min, 0.33 Hz for 1-min, 1 Hz for 1-min, 3 Hz for 1-min, 5 Hz for 30 seconds, 10 Hz for 30 seconds, with 1 minute rest between each series of pulses. After the series of pulses to induce use-dependent block, the time course of recovery was followed using pulses delivered at 01. Hz (2-min) and 0.05 Hz (1-min).
To induce use-dependent block, the depolarizations were delivered by series of increasing rates: 0.05 Hz for 1-min, 0.33 Hz for 1-min, 1 Hz for 1-min, 3 Hz for 1-min, 5 Hz for 30 seconds, 10 Hz for 30 seconds, with 1 minute rest between each series of pulses. After the series of pulses to induce use-dependent block, the time course of recovery was followed using pulses delivered at 01. Hz (2-min) and 0.05 Hz (1-min). Peak sodium current was plotted as a function of experimental time (1-min per division on the time axis).

Structure (SMILES)	reversal of CFA-induced thermal hyperalgesia [1]	inhibition at 100 µM (human Nav1.7 channels) [%]	use dependent accumulation of block (human Nav1.7 channels; 100 micromolar inside cell, stimulation frequencies from 1 to 10 Hz)
CCC[N+](CC)(CC)C(CC)C(=O)Nc1c(C)cccc1C (stereo not shown) [Compound 21, N-ethyl etidocaine]	reversed; also recorded: potent blockade	97	–
CC[N+](CC)(CC)CC(=O)Nc1c(C)cccc1C [QX-314, reference compound]	reversed	–	strong use dependent accumulation of block
